Laboratory results as given in US8440442B2, “Method of assaying 5-FU” (Myriad Genetics, Inc, priority 2009, dated 2013).

Biological target: T1, dihydropyrimidine dehydrogenase (DPD) (Homo sapiens, UniProt Q12882)
T1 construct: from tissue; host or cells: donor whole blood (K2EDTA), plasma separated from it, and WBC/buffy coat
T1 sequence (Q12882 4-1025): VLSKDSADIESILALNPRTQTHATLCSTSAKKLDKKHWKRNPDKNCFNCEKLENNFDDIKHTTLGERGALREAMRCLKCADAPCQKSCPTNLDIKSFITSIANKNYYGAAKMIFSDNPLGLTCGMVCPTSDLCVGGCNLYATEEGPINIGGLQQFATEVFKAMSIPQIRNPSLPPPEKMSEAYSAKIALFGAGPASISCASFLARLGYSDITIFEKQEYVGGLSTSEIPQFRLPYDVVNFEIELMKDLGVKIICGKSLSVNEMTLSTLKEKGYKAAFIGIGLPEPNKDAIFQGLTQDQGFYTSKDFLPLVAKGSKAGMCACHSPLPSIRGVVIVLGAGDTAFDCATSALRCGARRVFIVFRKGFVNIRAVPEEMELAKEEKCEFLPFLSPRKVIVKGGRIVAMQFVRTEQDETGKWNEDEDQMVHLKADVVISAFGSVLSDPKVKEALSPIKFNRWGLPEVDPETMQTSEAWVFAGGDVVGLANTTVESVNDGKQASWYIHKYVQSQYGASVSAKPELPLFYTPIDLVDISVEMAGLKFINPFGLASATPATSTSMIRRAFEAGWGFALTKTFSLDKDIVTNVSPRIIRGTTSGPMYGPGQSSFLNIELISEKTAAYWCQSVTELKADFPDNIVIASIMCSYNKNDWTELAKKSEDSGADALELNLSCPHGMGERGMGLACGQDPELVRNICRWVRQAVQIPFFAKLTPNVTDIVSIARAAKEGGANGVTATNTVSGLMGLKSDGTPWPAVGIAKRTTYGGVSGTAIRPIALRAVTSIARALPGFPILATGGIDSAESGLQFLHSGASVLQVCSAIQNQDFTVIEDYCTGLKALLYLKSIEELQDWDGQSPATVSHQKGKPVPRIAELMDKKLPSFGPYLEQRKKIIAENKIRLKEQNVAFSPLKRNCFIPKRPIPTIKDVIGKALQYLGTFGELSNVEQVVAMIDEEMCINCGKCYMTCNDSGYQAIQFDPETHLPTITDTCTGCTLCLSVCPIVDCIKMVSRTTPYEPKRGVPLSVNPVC
Experiment: Amount of DPD inactivator needed: gimeracil in 5-FU spiked blood, plasma with or without added WBC/buffy coat
Assay type: biochemical
Details: for Average 5-FU Measurement Initial / Average 5-FU Measurement 24-hour: in ng/mL; for Average 5-FU Measurement 24-hour: plasma 24 hours at room temperature
Procedure: In the following illustrative examples, 5-FU was measured using an antibody-based agglutination assay on the Olympus AU680 Analyzer using an antibody disclosed in U.S. Pat. No. 7,205,116. Specifically, the concentration of 5-FU in a sample is determined based on the absorbance of a sample, which is determined by the amount of aggregation by the nanoparticles. The system requires two reagents, which when mixed in the absence of free 5-FU will form large aggregates of nanoparticles and scatter light to result in a higher absorption value. In the presence of free 5-FU, the agglutination reaction becomes somewhat inhibited and scattering of light is less, causing a lower absorption value. The instrument is calibrated twice monthly, and a curve is generated (Absorbance vs. 5-FU concentration). Absorbance values from individual samples are compared against this curve to determine concentration.
Generally in the agglutination assay, 95 μl of a buffer containing 5-FU-labeled amino-dextran is pipetted to a cuvette, followed by 7 μL of a filtered plasma sample. The sample and reagent are mixed and then incubated for about 3.5 minutes. 95 μl of 5-FU antibody-conjugated nanoparticles is pipetted into the cuvette and mixed. The complete reaction incubates for about 6.2 minutes. A series of 27 measurements at 600 nm are taken at regular intervals by the AU680 analyzer throughout this process, and 5-FU concentration is calculated using the measurements from two specific time points.
Four tubes of blood (spray-on K2EDTA tubes, 10 mL) was drawn from each of six donors, and gently inverted several times to mix anti-coagulant. All donor blood was pooled into one large tube, and two equal aliquots of that pooled blood were transferred to two new tubes. The remaining blood was used to isolate white blood cell (WBC)/buffy coat. WBC/buffy coat was isolated by centrifuging the remaining blood tubes, extracting and pooling the WBC layer from each tube, centrifuging again to enrich the WBC/buffy coat, and separating the enriched WBC/buffy coat layer into a clean tube. One volume of blood was spiked with a calculated volume of stock 5-FU (at 200 ng/μL) for a final concentration of 500 ng/mL, and the other volume of blood was spiked with a calculated volume of stock 5-FU (at 200 ng/μL) for a final concentration of 1500 ng/mL. Three sets of eight tubes each were prepared to aliquot the spiked blood into. In addition, a negative control was used that was inoculated with 300 μL of 30% methanol/water instead of gimeracil. To four of the eight tubes per set, the low concentration 5-FU blood was aliquotted, 6 mL each tube. The high concentration 5-FU blood was aliquotted to the remaining four tubes per set, as well as to the negative control tube, 6 mL each. The eight tubes were then inoculated with either 300 μL of 0.12 mg/mL gimeracil in 30% MeOH/water or 300 μL of 0.04 mg/mL gimeracil. Blood tubes were inverted to mix the gimeracil, and then sat at room temperature for 45 minutes. Blood tubes were centrifuged at 2000×g for 10 minutes and room temperature. Plasma was aspirated immediately after centrifugation and dispensed into clean cryovials. The WBC/buffy coat was added to designated tubes of plasma, and vortexed to evenly mix. Plasma samples were run under standard conditions for the AU680 analyzer (200 μL, spin for 15 minutes at 12,500 rpm). Measurements were taken immediately after adding WBC/buffy coat (“initial”), as well as 24 hours (“24-hour”), after addition of WBC/buffy coat. For the 24-hour measurement, plasma was stored at room temperature for the first 24 hours of the experiment to simulate overnight ambient shipping.

[1] = target 5-FU 500 ng/mL, gimeracil 2000 ng/mL, NO WBC
[2] = target 5-FU 500 ng/mL, gimeracil 2000 ng/mL, w/WBC
[3] = target 5-FU 500 ng/mL, gimeracil 6000 ng/mL, NO WBC
[4] = target 5-FU 500 ng/mL, gimeracil 6000 ng/mL, w/WBC
[5] = target 5-FU 1500 ng/mL, gimeracil 2000 ng/mL, NO WBC
[6] = target 5-FU 1500 ng/mL, gimeracil 2000 ng/mL, w/WBC
[7] = target 5-FU 1500 ng/mL, gimeracil 6000 ng/mL, NO WBC
[8] = target 5-FU 1500 ng/mL, gimeracil 6000 ng/mL, w/WBC

% change (Initial vs. 24-hour) [1]: −2.9%
Average 5-FU Measurement Initial (target 5-FU 500 ng/mL, gimeracil 2000 ng/mL, NO WBC, initial): 488.3
Average 5-FU Measurement 24-hour [1]: 474.3
% change (Initial vs. 24-hour) [2]: 2.7%
Average 5-FU Measurement Initial (target 5-FU 500 ng/mL, gimeracil 2000 ng/mL, w/WBC, immediately after adding WBC/buffy coat): 465.8
Average 5-FU Measurement 24-hour [2]: 478.6
% change (Initial vs. 24-hour) [3]: 1.7%
Average 5-FU Measurement Initial (target 5-FU 500 ng/mL, gimeracil 6000 ng/mL, NO WBC, initial): 479.1
Average 5-FU Measurement 24-hour [3]: 487.3
% change (Initial vs. 24-hour) [4]: 1.0%
Average 5-FU Measurement Initial (target 5-FU 500 ng/mL, gimeracil 6000 ng/mL, w/WBC, initial): 473.7
Average 5-FU Measurement 24-hour [4]: 478.6
% change (Initial vs. 24-hour) [5]: −0.5%
Average 5-FU Measurement Initial (target 5-FU 1500 ng/mL, gimeracil 2000 ng/mL, NO WBC, initial): 1434.9
Average 5-FU Measurement 24-hour [5]: 1427.3
% change (Initial vs. 24-hour) [6]: 2.9%
Average 5-FU Measurement Initial (target 5-FU 1500 ng/mL, gimeracil 2000 ng/mL, w/WBC, initial): 1377.7
Average 5-FU Measurement 24-hour [6]: 1418.1
% change (Initial vs. 24-hour) [7]: 2.0%
Average 5-FU Measurement Initial (target 5-FU 1500 ng/mL, gimeracil 6000 ng/mL, NO WBC, initial): 1430.3
Average 5-FU Measurement 24-hour [7]: 1458.3
% change (Initial vs. 24-hour) [8]: −0.9%
Average 5-FU Measurement Initial (target 5-FU 1500 ng/mL, gimeracil 6000 ng/mL, w/WBC, initial): 1402.9
Average 5-FU Measurement 24-hour [8]: 1390.1
Structure (SMILES): Oc1cc(O)c(Cl)cn1 [Gimeracil, 5-chloro-2,4-dihydroxypyridine]
